Laboratory results published in article PMC9298916, “The Discovery and Structure‐Activity Evaluation of (+)‐Floyocidin B and Synthetic Analogs” (Chemmedchem, 2021).
Converted amounts (≈) assume the structure as drawn. Like-named read-outs stand apart in the source and are kept apart here.

Columns and labels:
E. coli ATCC25922 = assay: Micro-broth dilution growth inhibition, E. coli (CAMH); assay type: cell-based; details: Escherichia coli, 18 h
E. coli ATCC25922 MHC = assay: Micro-broth dilution growth inhibition, E. coli in CAMH with 44 mM sodium bicarbonate (MHC); assay type: cell-based; details: E. coli ATCC25922 MHC (CAMH + 44 mM sodium bicarbonate)
P. aeruginosa ATCC27853 = assay: Micro-broth dilution growth inhibition, P. aeruginosa; assay type: cell-based; details: Pseudomonas aeruginosa, 18 h
S. aureus ATCC25923 = assay: Micro-broth dilution growth inhibition, S. aureus; assay type: cell-based; details: Staphylococcus aureus, 18 h
C. albicans FH2173 = assay: Micro-broth dilution growth inhibition, C. albicans (ATP quantification); assay type: cell-based
physchem = assay type: physicochemical; details: for chromatographic logD: pH 7.4, Log D pH 7.4
Protocol: 2.4. Assay descriptions for the profiling of all four stereoisomers of (+)-floyocidin B and (−)-avicennone C,1 the avicennone C-floyocidin B hybrids 35, ent-35, 36 and ent-36 as well as the natural product (+)-floyocidin A.
Determination of logD 7.4
LogD values at pH 7.4 were determined by a standardized HPLC method derived from by Genieser et al.8 The calculation of the logD value for measured compounds is performed by comparison of the retention times with standard compounds of known distribution coefficients between 1 -octanol and water at pH 7.4. […]
8 Krass, J. D., Jastorff, B., and Genieser, H.-G. Anal. Chem. 1997, 69, 2575–2581. […]

[1] = Microsomal stability, human; assay type: in vitro ADME; details: 1 µM compound; for Microsomal stability CLint, Human / Microsomal stability t1/2, Human: human liver microsomes 0.5 mg/mL
Protocol: (§1) 2.4. Assay descriptions for the profiling of all four stereoisomers of (+)-floyocidin B and (−)-avicennone C,1 the avicennone C-floyocidin B hybrids 35, ent-35, 36 and ent-36 as well as the natural product (+)-floyocidin A. […]
(§2) Pooled liver microsomes are purchased. Microsomes are stored at –80 °C prior to use. Microsomes (final protein concentration 0.5 mg/mL), 0.1 M phosphate buffer pH 7.4, and test compound (final substrate concentration 1 µM; final DMSO concentration 0.25%) are preincubated at 37 °C prior to the addition of NADPH (final concentration 1 mM) to initiate the reaction. A minus cofactor control i ncubation is included for each compound tested where 0.1 M phosphate buffer pH 7.4 is added instead of NADPH. Two control compounds are included. All incubations are performed singularly for each test compound. Each compound is incubate d for 0, 5, 15, 30, and 45 min. The control is incubated for 45 min only. The reactions are stopped by transferring incubate into acetonitrile at the appropriat e time points, in a 1:3 ratio. The termination plates are centrifuged at 3,000 rpm for 20 min at 4 °C to precipitate the protein.
(§3) From a plot of ln peak area ratio (compound peak area/internal standard peak area) against time, the gradient of the line is determined. Subsequently, half -life and intrinsic clearance are calculated using the equations below:
(§4) Elimination rate constant (k) = (- gradient)
(§5) Intrinsic clearance (CL )(µL/min/mg protein) = V x 0.693 […]
(§6) where V = Incubation volume (µL)/Microsomal protein (mg)
(§7) Relevant control compounds are assessed, ensuring intrinsic clearance values fall within the specified limits (if available). […]

[2] = Microsomal stability, mouse; assay type: in vitro ADME; details: for Microsomal stability CLint, Mouse / Microsomal stability t1/2, Mouse: mouse liver microsomes 0.5 mg/mL
Protocol: as §1, §2, §3, §4, §5, §6, §7

THP1 cells = assay: Cytotoxicity on THP1 cells (CellTiterGlo); assay type: cell-based; details: THP1 cells; 40 h
Protocol: (§8) Cytotoxicity on THP1 and HepG2 cells
(§9) After 4 hours of HepG2 cell line (provided by ATCC) plating at 2.500 cells /well in 384-w plates, compounds were added to the cells. After an incubation at 37 °C for 40 h, the CellTiterGlo assay (provided by Promega) was performed.
(§10) Luminescence measurement is related to the cell viability. Compound activity is determined by using the control wells with no treatment as control (100% of growth). The assay was performed identically with THP1 cells. All incubations were […]

HepG2 cells = assay: Cytotoxicity on HepG2 cells (CellTiterGlo); assay type: cell-based; details: 40 h
Protocol: as §8, §9, §10

[3] = Cellular permeability assay utilizing Caco2 cell line; details: human; for Papp at 120 min, 10 µM: Caco-2, Caco‐2 permeability Papp +Elacridar, A2B in the presence of elacridar; for Papp A→B at 120 min, 10 µM: Caco-2, Caco‐2 permeability Papp A2B, A2B
Caco-2 cells = assay: as above; details: 10 µM, 120 min; for Caco‐2 permeability recovery +Elacridar / Caco‐2 permeability Papp +Elacridar: A2B in the presence of elacridar
[4] = system: M. catarrhalis ATCC25238I; assay: Micro-broth dilution growth inhibition, M. catarrhalis; assay type: cell-based
[5] = Escherichia coli, ATCC25922, 18 h, read-out: MIC
[6] = Candida albicans, FH2173, 48 h, read-out: MIC

SMILES | MIC (E. coli ATCC25922) [mg/L] | MIC (E. coli ATCC25922 MHC; [5]) [mg/L] | MIC (P. aeruginosa ATCC27853) [mg/L] | MIC (S. aureus ATCC25923) [mg/L] | MIC (C. albicans FH2173; [6]) [mg/L] | chromatographic logD (physchem) | Cytotoxicity TC50 THP1 (THP1 cells) [µM] | Cytotoxicity TC50 HepG2 (HepG2 cells) [µM] | Caco‐2 permeability recovery +Elacridar (Caco-2 cells) [%] | Caco‐2 permeability recovery A2B (Caco-2 cells) [%] | MIC [4] [mg/L] | Log D pH 7.4 (physchem) | Microsomal stability CLint, Human [1] [μL/min/mg protein] | Microsomal stability t1/2, Human [1] [min] | Microsomal stability CLint, Mouse ([2]; 1 µM compound) [μL/min/mg protein] | Microsomal stability t1/2, Mouse ([2]; 1 µM compound) [min] | Caco‐2 permeability Papp +Elacridar (Caco-2 cells) | Caco‐2 permeability Papp A2B (Caco-2 cells) | MIC (C. albicans FH2173; 48 h) [mg/L] | also measured
CCC/C=C/c1cc2c(cn1)[C@H](O)[C@H]1O[C@@]1(CC=C(C)C)C2=O [compound 27, (1aR,2S,7aR)‐2‐Hydroxy‐7 a‐(3‐methylbut‐2‐en‐1‐yl)‐5‐((E)‐pent‐1‐en‐1‐yl)‐1 a,7 a‐dihydrooxireno[2,3‐g]isoquinolin‐7(2H)‐one] | > 128 | > 128 | > 128 | > 128 | > 128 | 4.14 | 10.6 | 10.7 | 38.5 | 42.1 |  |  |  |  |  |  |  |  |  | microsomal CLint at 1 µM ([1]; human, pooled liver microsomes, pH 7.4, human liver microsomes 0.5 mg/mL): 95.8 µL/min/mg; half-life at 1 µM ([1]; human, pooled liver microsomes, pH 7.4, human liver microsomes 0.5 mg/mL, read-out: Microsomal stability t1/2, Human): 14.5 min; microsomal CLint at 1 µM ([2]; mouse, pooled liver microsomes, pH 7.4, mouse liver microsomes 0.5 mg/mL, 1 µM compound, read-out: Microsomal stability CLint, Mouse): 1500 µL/min/mg; half-life at 1 µM ([2]; mouse, pooled liver microsomes, pH 7.4, mouse liver microsomes 0.5 mg/mL, 1 µM compound, read-out: Microsomal stability t1/2, Mouse): 0.924 min; Papp at 120 min, 10 µM [3]: 87.7 nm/s; Papp A→B at 120 min, 10 µM [3]: 117 nm/s
CCCC=Cc1cc2c(cn1)C(O)C1OC1(CC=C(C)C)C2=O (stereo not drawn) [ent‐27] |  |  |  |  |  |  | 11.5 | 10.4 | 15.3 | 8.69 | 8 (≈ 25.5 µM) | 4.16 | 44.3 | 31.3 | 764 | 1.81 | 64.4 10^−7 cm s^−1 | 40.5 10^−7 cm s^−1 |  | Caco‐2 permeability recovery +Elacridar (Caco-2 cells; listed as ent-27): 15.3%; Caco‐2 permeability recovery A2B (Caco-2 cells; listed as ent-27): 8.69%
CC(C)=CCC12OC1C(O)c1ccccc1C2=O (stereo not drawn) [compound 2, (−)‐avicennone C, reference compound] |  |  |  |  |  |  | 30 | >30 | 83.4 | 86.7 | 64 (≈ 262 µM) | 2.86 | 150 | 9.26 |  |  | 393 10^−7 cm s^−1 | 407 10^−7 cm s^−1 | 128 (≈ 524 µM) | 
CC(C)=CCC12OC1C(O)c1ccccc1C2=O (stereo not drawn) [ent‐37] |  |  |  |  |  |  | 25.2 | 30 | 74.6 | 81.3 |  | 2.82 | 73.5 | 18.9 | 370 | 3.75 | 300 10^−7 cm s^−1 | 360 10^−7 cm s^−1 | 128 (≈ 524 µM) | MIC (E. coli ATCC25922 MHC; 18 h): 128 mg/L; Caco‐2 permeability recovery +Elacridar (Caco-2 cells; listed as ent-37): 74.6%; Caco‐2 permeability recovery A2B (Caco-2 cells; listed as ent-37): 81.3%
CC(C)=CCC12OC1C(O)c1ccccc1C2=O (stereo not shown) [compound 37] |  |  |  |  |  | 2.82 | 27.2 | 30 | 80.9 | 74.8 | 128 (≈ 524 µM) |  | 54.6 | 25.4 |  |  |  |  | 128 (≈ 524 µM) | microsomal CLint at 1 µM ([2]; mouse, microsomes, pH 7.4, Microsomal stability CLint): > 1500 µL/min/mg; Papp at 120 min, 10 µM [3]: 279 nm/s; Papp A→B at 120 min, 10 µM [3]: 326 nm/s
CC(C)=CCC12OC1C(O)c1ccccc1C2=O (stereo not shown) [compound 38] | > 128 | > 128 | > 128 | > 128 | > 128 |  | 30 | 9.49 | 132 | 127 |  | 2.84 | 76.0 | 18.2 | 1070 | 1.29 | 331 10^−7 cm s^−1 | 620 10^−7 cm s^−1 |  | MIC ([4]; Moraxella catarrhalis, ATCC25238I, read-out: MIC): 128 mg/L (≈ 524 µM)
CCC/C=C/C=C/C1=C(CO)[C@@H](O)[C@H]2O[C@@]2(CC=C(C)C)C1=O [compound 3, (1R,5R,6R)‐3‐((1E,3E)‐Hepta‐1,3‐dien‐1‐yl)‐5‐hydroxy‐4‐(hydroxymethyl)‐1‐(3‐methylbut‐2‐en‐1‐yl)‐7‐oxabicyclo[4.1.0]hept‐3‐en‐2‐one] | > 128 | > 128 | > 128 | 64 (≈ 201 µM) | > 128 | 4.11 |  |  |  |  |  |  |  |  |  |  |  |  |  | 
